# From patent US20130157954A1, “METHODS FOR TREATMENT OR PROPHYLAXIS OF KIDNEY OR LIVER DYSFUNCTION” (NPS PHARMACEUTICALS, INC., priority 2010, published 2013)
# Experiment: Example 1: liver biomarkers (total bilirubin, ALT, AST, ALP) in short bowel syndrome patients, every four weeks for 24 weeks; also sorted by >5% change from baseline
# Format: in vivo, Human
# Design: AST (SGOT) Change from Baseline Median / ALT (SGPT) Median / TOTAL BILIRUBIN Median / TOTAL BILIRUBIN Change from Baseline Median / ALT (SGPT) Change from Baseline Median / AST (SGOT) Median: unit not given here
# Settings: for ALKALINE PHOSPHATASE change from baseline −5% <= and <=5%, percent of patients / ALT (SGPT) change from baseline <−5%, number of patients / ALT (SGPT) change from baseline <−5%, percent of patients / ALT (SGPT) change from baseline >5%, number of patients / ALT (SGPT) change from baseline >5%, percent of patients / ALT (SGPT) change from baseline −5% <= and <=5%, number of patients / ALT (SGPT) change from baseline −5% <= and <=5%, percent of patients / AST (SGOT) change from baseline <−5%, number of patients / AST (SGOT) change from baseline <−5%, percent of patients / AST (SGOT) change from baseline >5%, number of patients / AST (SGOT) change from baseline >5%, percent of patients / AST (SGOT) change from baseline −5% <= and <=5%, number of patients / AST (SGOT) change from baseline −5% <= and <=5%, percent of patients / TOTAL BILIRUBIN change from baseline <−5%, number of patients / TOTAL BILIRUBIN change from baseline <−5%, percent of patients / TOTAL BILIRUBIN change from baseline >5%, number of patients / TOTAL BILIRUBIN change from baseline >5%, percent of patients / TOTAL BILIRUBIN change from baseline −5% <= and <=5%, number of patients / TOTAL BILIRUBIN change from baseline −5% <= and <=5%, percent of patients / ALKALINE PHOSPHATASE change from baseline <−5%, number of patients / ALKALINE PHOSPHATASE change from baseline <−5%, percent of patients / ALKALINE PHOSPHATASE change from baseline >5%, number of patients / ALKALINE PHOSPHATASE change from baseline >5%, percent of patients / ALKALINE PHOSPHATASE change from baseline −5% <= and <=5%, number of patients: 0.05 mg/kg/day
# Procedure: Human patients with short bowel syndrome were divided into three groups: a control group (16 total individuals) to receive placebo, an experimental group (35 total individuals) to receive teduglutide at 0.05 mg/kg/day throughout the study, and an experimental group (32 total individuals) to receive teduglutide at 0.1 mg/kg/day throughout the study. Patients were treated by subcutaneous injection of placebo or the appropriate dose of teduglutide. As individuals with short bowel syndrome are likely to experience associated liver and kidney disease, known biomarkers of liver and kidney function were monitored every four weeks, for 24 weeks. The liver biomarkers tested included total bilirubin, ALT and AST and ALP. The kidney biomarkers tested included urea nitrogen, creatinine and GFR. Before administration of placebo or teduglutide, diagnostic biomarker levels were tested to establish a baseline for each individual.
# To visualize the effect of GLP-2 on the levels of the diagnostic biomarkers, the average change from baseline was calculated for the placebo and teduglutide treated groups for each visit after a baseline was established. The average change from baseline of each group is depicted in FIGS. 1-7. The numerical figures for each diagnostic biomarker at each time point are depicted in Table 1.
# The efficacy of teduglutide in treating liver dysfunction was further tested by sorting the data into two groups: individuals with abnormal baseline values of liver diagnostic biomarkers; and individuals with normal baseline values of liver diagnostic biomarkers. The mean diagnostic biomarker change from baseline for these two groups is shown for ALT (FIGS. 5 and 6) and AST (FIGS. 7 and 8). […] These changes were significant when compared to baseline levels for the group, and when compared to placebo (see FIGS. 5 and 7).
# The raw data for this sorting is reproduced in Table 2 below.
compound,measurement,setting,value
CC[C@H](C)[C@H](NC(=O)[C@H](Cc1ccccc1)NC(=O)[C@H](CC(=O)O)NC(=O)[C@H](CCCNC(=N)N)NC(=O)[C@H](C)NC(=O)[C@H](C)NC(=O)[C@H](CC(C)C)NC(=O)[C@H](CC(N)=O)NC(=O)[C@H](CC(=O)O)NC(=O)[C@H](CC(C)C)NC(=O)[C@@H](NC(=O)[C@@H](NC(=O)[C@H](CC(N)=O)NC(=O)[C@H](CCSC)NC(=O)[C@H](CCC(=O)O)NC(=O)[C@H](CC(=O)O)NC(=O)[C@H](CO)NC(=O)[C@H](Cc1ccccc1)NC(=O)[C@H](CO)NC(=O)CNC(=O)[C@H](CC(=O)O)NC(=O)CNC(=O)[C@@H](N)Cc1c[nH]cn1)[C@@H](C)O)[C@@H](C)CC)C(=O)N[C@@H](CC(N)=O)C(=O)N[C@@H](Cc1c[nH]c2ccccc12)C(=O)N[C@@H](CC(C)C)C(=O)N[C@H](C(=O)N[C@@H](CCC(N)=O)C(=O)N[C@H](C(=O)N[C@@H](CCCCN)C(=O)N[C@H](C(=O)N[C@H](C(=O)N[C@@H](CC(=O)O)C(=O)O)[C@@H](C)O)[C@@H](C)CC)[C@@H](C)O)[C@@H](C)CC [teduglutide],"ALKALINE PHOSPHATASE change from baseline −5% <= and <=5%, percent of patients",week 12,(5.7%)
same,"ALT (SGPT) change from baseline <−5%, number of patients",week 12,19
same,"ALT (SGPT) change from baseline <−5%, percent of patients",week 12,(54.3%)
same,"ALT (SGPT) change from baseline >5%, number of patients",week 12,4
same,"ALT (SGPT) change from baseline >5%, percent of patients",week 12,(11.4%)
same,"ALT (SGPT) change from baseline −5% <= and <=5%, number of patients",week 12,4
same,"ALT (SGPT) change from baseline −5% <= and <=5%, percent of patients",week 12,(11.4%)
same,"AST (SGOT) change from baseline <−5%, number of patients",week 12,19
same,"AST (SGOT) change from baseline <−5%, percent of patients",week 12,(54.3%)
same,"AST (SGOT) change from baseline >5%, number of patients",week 12,5
same,"AST (SGOT) change from baseline >5%, percent of patients",week 12,(14.3%)
same,"AST (SGOT) change from baseline −5% <= and <=5%, number of patients",week 12,3
same,"AST (SGOT) change from baseline −5% <= and <=5%, percent of patients",week 12,(8.6%)
same,"TOTAL BILIRUBIN change from baseline <−5%, number of patients",week 12,14
same,"TOTAL BILIRUBIN change from baseline <−5%, percent of patients",week 12,(40.0%)
same,"TOTAL BILIRUBIN change from baseline >5%, number of patients",week 12,6
same,"TOTAL BILIRUBIN change from baseline >5%, percent of patients",week 12,(17.1%)
same,"TOTAL BILIRUBIN change from baseline −5% <= and <=5%, number of patients",week 12,4
same,"TOTAL BILIRUBIN change from baseline −5% <= and <=5%, percent of patients",week 12,(11.4%)
same,"ALKALINE PHOSPHATASE change from baseline <−5%, number of patients",week 16,20
same,"ALKALINE PHOSPHATASE change from baseline <−5%, percent of patients",week 16,(57.1%)
same,"ALKALINE PHOSPHATASE change from baseline >5%, number of patients",week 16,6
same,"ALKALINE PHOSPHATASE change from baseline >5%, percent of patients",week 16,(17.1%)
same,"ALKALINE PHOSPHATASE change from baseline −5% <= and <=5%, number of patients",week 16,2
same,"ALKALINE PHOSPHATASE change from baseline −5% <= and <=5%, percent of patients",week 16,(5.7%)
same,"ALT (SGPT) change from baseline <−5%, number of patients",week 16,16
same,"ALT (SGPT) change from baseline <−5%, percent of patients",week 16,(45.7%)
same,"ALT (SGPT) change from baseline >5%, number of patients",week 16,12
same,"ALT (SGPT) change from baseline >5%, percent of patients",week 16,(34.3%)
same,"ALT (SGPT) change from baseline −5% <= and <=5%, number of patients",week 16,0
same,"ALT (SGPT) change from baseline −5% <= and <=5%, percent of patients",week 16,(0.0%)
same,"AST (SGOT) change from baseline <−5%, number of patients",week 16,14
same,"AST (SGOT) change from baseline <−5%, percent of patients",week 16,(40.0%)
same,"AST (SGOT) change from baseline >5%, number of patients",week 16,8
same,"AST (SGOT) change from baseline >5%, percent of patients",week 16,(22.9%)
same,"AST (SGOT) change from baseline −5% <= and <=5%, number of patients",week 16,6
same,"AST (SGOT) change from baseline −5% <= and <=5%, percent of patients",week 16,(17.1%)
same,"TOTAL BILIRUBIN change from baseline <−5%, number of patients",week 16,14
same,"TOTAL BILIRUBIN change from baseline <−5%, percent of patients",week 16,(40.0%)
same,"TOTAL BILIRUBIN change from baseline >5%, number of patients",week 16,9
same,"TOTAL BILIRUBIN change from baseline >5%, percent of patients",week 16,(25.7%)
same,"TOTAL BILIRUBIN change from baseline −5% <= and <=5%, number of patients",week 16,3
same,"TOTAL BILIRUBIN change from baseline −5% <= and <=5%, percent of patients",week 16,(8.6%)
same,"ALKALINE PHOSPHATASE change from baseline <−5%, number of patients",week 20,22
same,"ALKALINE PHOSPHATASE change from baseline <−5%, percent of patients",week 20,(62.9%)
same,"ALKALINE PHOSPHATASE change from baseline >5%, number of patients",week 20,4
same,"ALKALINE PHOSPHATASE change from baseline >5%, percent of patients",week 20,(11.4%)
same,"ALKALINE PHOSPHATASE change from baseline −5% <= and <=5%, number of patients",week 20,1
same,"ALKALINE PHOSPHATASE change from baseline −5% <= and <=5%, percent of patients",week 20,(2.9%)
same,"ALT (SGPT) change from baseline <−5%, number of patients",week 20,17
same,"ALT (SGPT) change from baseline <−5%, percent of patients",week 20,(48.6%)
same,"ALT (SGPT) change from baseline >5%, number of patients",week 20,9
same,"ALT (SGPT) change from baseline >5%, percent of patients",week 20,(25.7%)
same,"ALT (SGPT) change from baseline −5% <= and <=5%, number of patients",week 20,1
same,"ALT (SGPT) change from baseline −5% <= and <=5%, percent of patients",week 20,(2.9%)
same,"AST (SGOT) change from baseline <−5%, number of patients",week 20,17
same,"AST (SGOT) change from baseline <−5%, percent of patients",week 20,(48.6%)
same,"AST (SGOT) change from baseline >5%, number of patients",week 20,6
same,"AST (SGOT) change from baseline >5%, percent of patients",week 20,(17.1%)
same,"AST (SGOT) change from baseline −5% <= and <=5%, number of patients",week 20,4
same,"AST (SGOT) change from baseline −5% <= and <=5%, percent of patients",week 20,(11.4%)
same,"TOTAL BILIRUBIN change from baseline <−5%, number of patients",week 20,12
same,"TOTAL BILIRUBIN change from baseline <−5%, percent of patients",week 20,(34.3%)
same,"TOTAL BILIRUBIN change from baseline >5%, number of patients",week 20,7
same,"TOTAL BILIRUBIN change from baseline >5%, percent of patients",week 20,(20.0%)
same,"TOTAL BILIRUBIN change from baseline −5% <= and <=5%, number of patients",week 20,6
same,"TOTAL BILIRUBIN change from baseline −5% <= and <=5%, percent of patients",week 20,(17.1%)
same,"ALKALINE PHOSPHATASE change from baseline <−5%, number of patients",week 24,21
same,"ALKALINE PHOSPHATASE change from baseline <−5%, percent of patients",week 24,(60.0%)
same,"ALKALINE PHOSPHATASE change from baseline >5%, number of patients",week 24,4
same,"ALKALINE PHOSPHATASE change from baseline >5%, percent of patients",week 24,(11.4%)
same,"ALKALINE PHOSPHATASE change from baseline −5% <= and <=5%, number of patients",week 24,0
same,"ALKALINE PHOSPHATASE change from baseline −5% <= and <=5%, percent of patients",week 24,(0.0%)
same,"ALT (SGPT) change from baseline <−5%, number of patients",week 24,18
same,"ALT (SGPT) change from baseline <−5%, percent of patients",week 24,(51.4%)
same,"ALT (SGPT) change from baseline >5%, number of patients",week 24,4
same,"ALT (SGPT) change from baseline >5%, percent of patients",week 24,(11.4%)
same,"ALT (SGPT) change from baseline −5% <= and <=5%, number of patients",week 24,4
same,"ALT (SGPT) change from baseline −5% <= and <=5%, percent of patients",week 24,(11.4%)
same,"AST (SGOT) change from baseline <−5%, number of patients",week 24,17
same,"AST (SGOT) change from baseline <−5%, percent of patients",week 24,(48.6%)
same,"AST (SGOT) change from baseline >5%, number of patients",week 24,6
same,"AST (SGOT) change from baseline >5%, percent of patients",week 24,(17.1%)
same,"AST (SGOT) change from baseline −5% <= and <=5%, number of patients",week 24,3
same,"AST (SGOT) change from baseline −5% <= and <=5%, percent of patients",week 24,(8.6%)
same,"TOTAL BILIRUBIN change from baseline <−5%, number of patients",week 24,8
same,"TOTAL BILIRUBIN change from baseline <−5%, percent of patients",week 24,(22.9%)
same,"TOTAL BILIRUBIN change from baseline >5%, number of patients",week 24,10
same,"TOTAL BILIRUBIN change from baseline >5%, percent of patients",week 24,(28.6%)
same,"TOTAL BILIRUBIN change from baseline −5% <= and <=5%, number of patients",week 24,4
same,"TOTAL BILIRUBIN change from baseline −5% <= and <=5%, percent of patients",week 24,(11.4%)
same,ALT (SGPT) Change from Baseline Median,"0.10 mg/kg/day, DW4",−6.5
same,ALT (SGPT) Median,"0.10 mg/kg/day, DW4",30.0
